Results published in PMC3558931 (Chemistry & biology, 2013).

What follows are molecules tested on methyltransferase NcpB (assay: NcpB O-methyltransferase enzyme assay). Settings: with NcpB and SAM.

| Molecule | substrate of NcpB (O-methylation) |
| --- | --- |
| Cc1cc(O)cc(=O)o1 | not substrates |
| Cc1cc(O)c(C)c(=O)o1 [4-hydroxy-3,6-dimethyl-2-pyrone] | not substrates |
| germicidin A | not substrates |
